Values of other authors, collected in article PMC5580352 (Journal of medicinal chemistry, 2017).

Conditions: 1 week of administration of 20 mg/kg

SMILES: CCCC[S+]([O-])c1sc2nc(-c3cccs3)cc(-c3ccccc3)c2c1N (stereo not shown) [Compound 1, 2-(butylsulfinyl)-4-phenyl-6-(thiophen-2-yl)thieno[2,3-b]pyridin-3-amine]
- adverse effects: no adverse effects on weight, activity, blood counts or blood chemistry
